Experiments:
[1] = test system: VIOTR; test: Pre-emergence herbicidal action against VIOTR; type: in vivo, Viola tricolor
Summary of the method: (§1)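 Herbicidal effect was assessed 3 weeks after treatment by visual comparison with untreated controls, 100% denoting dead plants. Aqueous WP or EC preparations had been applied at 600 to 800 l/ha with 0.2% wetting agent to the soil covering freshly sown seeds.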

[2] = test system: MATIN; test: Post-emergence herbicidal action against MATIN; type: in vivo, Matricaria inodora; details: dosage 20 g/ha
Summary of the method: (§2)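 Herbicidal effect was scored visually in percent after about 3 weeks in the greenhouse. Plants had been raised in sandy loam and treated post-emergence at the one-leaf stage with formulated compound at 600 to 800 l/ha water plus 0.2% wetting agent.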

[3] = test system: ECHCG; test: Pre-emergence herbicidal action against ECHCG; type: in vivo, Echinochloa crus-galli; details: 80 g/ha
Summary of the method: as §1

[4] = test system: SETVI; test: Pre-emergence herbicidal action against SETVI; type: in vivo, Setaria viridis; details: dosage 80 g/ha
Summary of the method: as §1

[5] = test system: PHBPU; test: Pre-emergence herbicidal action against PHBPU; type: in vivo, Pharbitis purpurea; details: dosage 80 g/ha
Summary of the method: as §1

[6] = test system: MATIN; test: Pre-emergence herbicidal action against MATIN; type: in vivo, Matricaria inodora
Summary of the method: as §1

[7] = test system: AMARE; test: Post-emergence herbicidal action against AMARE; type: in vivo, Amaranthus retroflexus; details: 20 g/ha, visual assessment about 3 weeks after treatment, 100% = plants have died, 0% = like control plants
Summary of the method: as §2

[8] = test system: AMARE; test: Pre-emergence herbicidal action against AMARE; type: in vivo, Amaranthus retroflexus
Summary of the method: as §1

[9] = test system: ECHCG; test: Post-emergence herbicidal action against ECHCG; type: in vivo, Echinochloa crus-galli; details: dosage 20 g/ha
Summary of the method: as §2

[10] = test system: ABUTH; test: Pre-emergence herbicidal action against ABUTH; type: in vivo, Abutilon theophrasti; details: for Pre-emergence action against ABUTH (herbicidal activity in percent): dosage 20 g/ha, scored visually after 3 weeks vs untreated controls, 100% = plants have died, 0% = like control plants
Summary of the method: as §1

[11] = test system: DIGSA; test: Pre-emergence herbicidal action against DIGSA; type: in vivo, Digitaria sanguinalis
Summary of the method: as §1

[12] = test system: VERPE; test: Pre-emergence herbicidal action against VERPE; type: in vivo, Veronica persica; details: dosage 80 g/ha
Summary of the method: as §1

[13] = test system: POLCO; test: Pre-emergence herbicidal action against POLCO; type: in vivo, Polygonum convolvulus; details: dosage 80 g/ha
Summary of the method: as §1

[14] = test system: ABUTH; test: Post-emergence herbicidal action against ABUTH; type: in vivo, Abutilon theophrasti; details: visual assessment about 3 weeks after treatment vs untreated controls
Summary of the method: as §2

[15] = test system: ALOMY; test: Pre-emergence herbicidal action against ALOMY; type: in vivo, Alopecurus myosuroides; details: pre-emergence
Summary of the method: as §1

[16] = test system: DIGSA; test: Post-emergence herbicidal action against DIGSA; type: in vivo, Digitaria sanguinalis; details: 20 g/ha
Summary of the method: as §2

[17] = test system: AVEFA; test: Pre-emergence herbicidal action against AVEFA; type: in vivo, Avena fatua; details: 80 g/ha, pre-emergence
Summary of the method: as §1

[18] = test system: VIOTR; test: Post-emergence herbicidal action against VIOTR; type: in vivo, Viola tricolor
Summary of the method: as §2

[19] = test system: SETVI; test: Post-emergence herbicidal action against SETVI; type: in vivo, Setaria viridis; details: Setaria viridis, 504 h
Summary of the method: as §2

[20] = test system: ALOMY; test: Post-emergence herbicidal action against ALOMY; type: in vivo, Alopecurus myosuroides; details: Alopecurus myosuroides, 504 h, visual assessment about 3 weeks after treatment vs untreated controls
Summary of the method: as §2

[21] = test system: PHBPU; test: Post-emergence herbicidal action against PHBPU; type: in vivo, Pharbitis purpurea; details: Ipomoea purpurea, 504 h, dosage 20 g/ha
Summary of the method: as §2

[22] = 20 g/ha, scored visually after 3 weeks vs untreated controls, 100% = plants have died, 0% = like control plants
[23] = 80 g/ha, scored visually after 3 weeks vs untreated controls (100% = plants have died, 0% = like control plants)

CCn1nnnc1NC(=O)c1ccc(C(F)F)c(C(=O)NC2CCC2)c1Cl [Example 2-164]
100%: Pre-emergence action against VIOTR in % ([1]; dosage 80 g/ha) | Pre-emergence action against PHBPU in % [5] | Pre-emergence action against MATIN in % ([6]; dosage 20 g/ha) | Pre-emergence action against MATIN in % ([6]; dosage 80 g/ha) | Pre-emergence action against AMARE in % [8, 22] | Pre-emergence action against AMARE in % [8, 23] | Pre-emergence action against ABUTH (herbicidal activity) [10, 23] | Pre-emergence action against DIGSA in % ([11]; dosage 80 g/ha) | Pre-emergence action against VERPE in % [12]
90%: Post-emergence action at 20 g/ha against AMARE in % [7] | Pre-emergence action against ABUTH (herbicidal activity in percent) [10] | Pre-emergence action against POLCO in % [13]
80%: Post-emergence action against MATIN in % [2] | Pre-emergence action against ECHCG in % [3] | Pre-emergence action against SETVI in % [4] | Post-emergence action against ECHCG in % [9]

CCn1nnnc1NC(=O)c1ccc(C(F)F)c(C(=O)NC)c1Br [Example 2-225]
90%: Pre-emergence action against ECHCG in % [3] | Pre-emergence action against PHBPU in % [5] | Pre-emergence action against POLCO in % [13]
80%: Pre-emergence action against VIOTR in % ([1]; dosage 20 g/ha) | Pre-emergence action against AVEFA in % [17] | Post-emergence action against MATIN in % [2] | Pre-emergence action against MATIN in % ([6]; dosage 20 g/ha)
100%: Post-emergence action against ABUTH in % ([14]; dosage 5 g/ha) | Post-emergence action against ABUTH in % ([14]; dosage 20 g/ha) | Pre-emergence action against ALOMY (herbicidal activity) [15, 23] | Post-emergence action against DIGSA [16] | Pre-emergence action against VIOTR in % ([1]; dosage 80 g/ha) | Pre-emergence action against SETVI in % [4] | Pre-emergence action against MATIN in % ([6]; dosage 80 g/ha) | Post-emergence action at 20 g/ha against AMARE in % [7] | Pre-emergence action against AMARE in % [8, 22] | Pre-emergence action against AMARE in % [8, 23] | Post-emergence action against ECHCG in % [9] | Post-emergence action against VIOTR in % ([18]; 5 g/ha) | Post-emergence action against VIOTR in % ([18]; 20 g/ha) | Pre-emergence action against ABUTH (herbicidal activity) [10, 23] | Pre-emergence action against ABUTH (herbicidal activity in percent) [10] | Pre-emergence action against DIGSA in % ([11]; dosage 20 g/ha) | Pre-emergence action against DIGSA in % ([11]; dosage 80 g/ha) | Pre-emergence action against VERPE in % [12]

CCNC(=O)c1c(Cl)ccc(C(=O)Nc2nnnn2CC)c1Br [Example 2-348]
100%: pest or weed control at 80 g/ha ([15]; Alopecurus myosuroides, 504 h, 80 g/ha, scored visually after 3 weeks vs untreated controls (100% = plants have died, 0% = like control plants)) | pest or weed control at 80 g/ha ([1]; Viola tricolor, 504 h, dosage 80 g/ha) | pest or weed control at 80 g/ha ([17]; Avena fatua, 504 h) | pest or weed control at 80 g/ha ([3]; Echinochloa crus-galli, 504 h) | pest or weed control at 80 g/ha ([4]; Setaria viridis, 504 h) | pest or weed control at 20 g/ha ([19]; dosage 20 g/ha) | pest or weed control at 20 g/ha ([7]; Amaranthus retroflexus, 504 h) | pest or weed control at 20 g/ha ([8]; Amaranthus retroflexus, 504 h, 20 g/ha, scored visually after 3 weeks vs untreated controls, 100% = plants have died, 0% = like control plants) | pest or weed control at 80 g/ha ([8]; Amaranthus retroflexus, 504 h, 80 g/ha, scored visually after 3 weeks vs untreated controls, 100% = plants have died, 0% = like control plants) | pest or weed control at 80 g/ha ([10]; Abutilon theophrasti, 504 h, 80 g/ha, scored visually after 3 weeks vs untreated controls (100% = plants have died, 0% = like control plants))
80%: pest or weed control at 5 g/ha ([19]; dosage 5 g/ha) | pest or weed control at 80 g/ha ([5]; Ipomoea purpurea, 504 h) | pest or weed control at 20 g/ha ([9]; Echinochloa crus-galli, 504 h) | pest or weed control at 20 g/ha ([18]; Viola tricolor, 504 h, 20 g/ha) | pest or weed control at 5 g/ha ([20]; dosage 5 g/ha) | pest or weed control at 20 g/ha [21] | pest or weed control at 80 g/ha ([12]; Veronica persica, 504 h)
90%: pest or weed control at 5 g/ha ([14]; Abutilon theophrasti, 504 h, dosage 5 g/ha) | pest or weed control at 20 g/ha ([14]; Abutilon theophrasti, 504 h, dosage 20 g/ha) | pest or weed control at 20 g/ha ([15]; Alopecurus myosuroides, 504 h, 20 g/ha, scored visually after 3 weeks, 100% = plants have died, 0% = like control plants) | pest or weed control at 20 g/ha ([6]; Tripleurospermum inodorum, 504 h, dosage 20 g/ha) | pest or weed control at 80 g/ha ([6]; Tripleurospermum inodorum, 504 h, dosage 80 g/ha) | pest or weed control at 20 g/ha ([20]; dosage 20 g/ha) | pest or weed control at 80 g/ha ([13]; Fallopia convolvulus, 504 h)
